Consider 31 molecules from ChEMBL document CHEMBL3399915, “Design, synthesis, and evaluation of phenylglycinols and phenyl amines as agonists of GPR88” (Bioorg Med Chem Lett, 2015).

The target of data set [1] is T1, G protein-coupled receptor 88 (Homo sapiens, UniProt Q9GZN0). Kind of data set: Agonist activity at GPR88 (unknown origin) transfected in forskolin-stimulated HEK cells assessed as inhibition of cAMP production after 30 mins by HTRF method relative to control. The format is functional, cell-based, HEK293. In general terms: Cyclic AMP is a second messenger, typically raised through Gs and lowered through Gi signalling.

Data set [2] can be described thus: Half life in mouse at 1 mg/kg, iv. It counts as ADME, organism-based. Also noted: dose 1 mg/kg, route intravenous. To be noted: in vivo.
Data set [3] can be described thus: Ratio of drug level in brain to plasma in mouse at 1 mg/kg, iv after 30 mins. To be noted: brain and plasma, read-out: BPR. Also noted: dose 1 mg/kg, route intravenous. It counts as ADME, organism-based.
Data set [4] is described as follows: Plasma protein binding in rat by equilibrium dialysis method. The format is ADME, cell-free. Conditions: read-out: PPB (converted). On the technique in general: In equilibrium dialysis only unbound substance equilibrates across the membrane.
The target of data set [5] is T1, G protein-coupled receptor 88. The data set can be described thus: Agonist activity at GPR88 (unknown origin) transfected in forskolin-stimulated HEK cells assessed as [35S]GTPgammaS binding after 60 mins by trilux scintillation counting analysis relative to control. The format is functional, cell-based, HEK293. In general terms: GTPγS is a poorly hydrolysed GTP analogue; its binding reports G protein activation.

Data set [6] in a line: Drug uptake in mouse brain at 1 mg/kg, iv after 30 mins. The format is ADME, organism-based. Details: dose 1 mg/kg, route intravenous. Conditions: read-out: Drug uptake.
Data set [7] can be described thus: Clearance in mouse at 1 mg/kg, iv. The format is ADME, organism-based. Also noted: dose 1 mg/kg, route intravenous. Conditions: in vivo.
A short description of data set [8]: Volume of distribution at steady state in mouse at 1 mg/kg, iv. The format is ADME, organism-based. Details: dose 1 mg/kg, route intravenous. Conditions: in vivo, read-out: Vdss.
Data set [9] in a line: Plasma protein binding in mouse by equilibrium dialysis method. The format is ADME, cell-free. Conditions: read-out: PPB (converted).
Data set [10] is described as follows: Plasma concentration in mouse at 1 mg/kg, iv after 30 mins. It counts as ADME, organism-based. Details: dose 1 mg/kg, route intravenous.
The nature of data set [11]: Plasma concentration in rat at 10 mg/kg, ip after 30 mins. The format is ADME, organism-based. Also noted: dose 10 mg/kg, route intraperitoneal.
The nature of data set [12]: Drug uptake in rat lung at 10 mg/kg, ip after 30 mins. To be noted: read-out: Drug uptake. Details: dose 10 mg/kg, route intraperitoneal. The format is ADME, organism-based.
Data set [13] in a line: Drug uptake in rat brain at 10 mg/kg, ip after 30 mins. The format is ADME, organism-based. Also noted: dose 10 mg/kg, route intraperitoneal. To be noted: read-out: Drug uptake.
Data set [14] can be described thus: Protein binding in rat brain by equilibrium dialysis method. The format is ADME, tissue-based. Conditions: read-out: PB (converted).
Data set [15] is described as follows: Drug uptake in rat CSF at 10 mg/kg, ip after 30 mins. The format is ADME, organism-based, Cerebrospinal fluid. Also noted: dose 10 mg/kg, route intraperitoneal. To be noted: read-out: Drug uptake.
Data set [16] can be described thus: Drug uptake in rat CSF at 30 mg/kg, ip after 30 mins. It counts as ADME, organism-based, Cerebrospinal fluid. Details: dose 30 mg/kg, route intraperitoneal. Conditions: read-out: Drug uptake.
A short description of data set [17]: Drug uptake in rat lung at 30 mg/kg, ip after 30 mins. The format is ADME, organism-based. Also noted: dose 30 mg/kg, route intraperitoneal. To be noted: read-out: Drug uptake.
Data set [18] in a line: Plasma concentration in rat at 30 mg/kg, ip after 30 mins. It counts as ADME, organism-based. Details: dose 30 mg/kg, route intraperitoneal.
Data set [19] can be described thus: Clearance in mouse at 10 mg/kg, ip. The format is ADME, organism-based. Details: dose 10 mg/kg, route intraperitoneal. To be noted: in vivo.
The nature of data set [20]: Drug uptake in rat brain at 30 mg/kg, ip after 30 mins. Details: dose 30 mg/kg, route intraperitoneal. Conditions: read-out: Drug uptake. The format is ADME, organism-based.

Molecules are shown by their SMILES.

T1 sequence (Q9GZN0 whole entry): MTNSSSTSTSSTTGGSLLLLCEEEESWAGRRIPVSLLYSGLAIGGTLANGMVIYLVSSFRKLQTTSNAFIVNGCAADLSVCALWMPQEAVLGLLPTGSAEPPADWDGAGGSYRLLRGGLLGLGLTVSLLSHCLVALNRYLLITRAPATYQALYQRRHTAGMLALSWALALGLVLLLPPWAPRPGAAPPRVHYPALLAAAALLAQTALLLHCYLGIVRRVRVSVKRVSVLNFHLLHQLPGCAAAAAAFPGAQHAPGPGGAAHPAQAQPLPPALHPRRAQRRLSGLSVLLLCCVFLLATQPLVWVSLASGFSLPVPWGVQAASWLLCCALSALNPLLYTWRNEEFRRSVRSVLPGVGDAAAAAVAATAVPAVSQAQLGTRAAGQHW

As a reminder, the EC50 is the midpoint of the concentration-response curve. In the case of `O=C(N[C@@H](CO)c1ccc2ccccc2c1)[C@H]1C[C@@H]1c1ccccc1`, the 50% effective concentration (EC50) in data set [1] was found to be 2.5 µM.
For the molecule `CCCC(C)COc1ccc([C@H](CN2CCOCC2)NC(=O)[C@@H](C)c2ccccc2)cc1` (mixture of isomers), in data set [1], the EC50 was found to be 0.091 µM.
For the molecule `CCCC(C)COc1ccc([C@H](CO)NC(=O)Cc2ccccc2)cc1` (mixture of isomers), in data set [1], the concentration for a half-maximal effect (EC50) is greater than 10 µM.
As for `CC[C@H](C)COc1ccc([C@H](CO)NC(=O)[C@@H](C)c2ccccc2)c(F)c1`, the EC50 in data set [1] worked out at 0.46 µM.
For `CO[C@@H](C)COc1ccc([C@H](CO)NC(=O)[C@@H](C)c2ccccc2)cc1`, the EC50 in [1] was greater than 10 µM.
Same read-out and setting: the figure for `CCCC(C)COc1ccc([C@H](CN)NC(=O)[C@@H](C)c2ccccc2)cc1` (mixture of isomers) is 0.11 µM; for `CCCC(C)COc1ccc([C@H](CN(C)C)NC(=O)[C@@H](C)c2ccccc2)cc1` (mixture of isomers) it is 0.029 µM; for `O=C(N[C@@H](CO)c1ccc2ccccc2c1)[C@@H]1C[C@@H]1c1ccccc1` it is greater than 81 µM.
`CCCC(C)COc1ccc([C@H](CO)NC(=O)C(CO)c2ccccc2)cc1` (mixture of isomers): the concentration giving a half-maximal response (EC50) in data set [1] turned out to be 0.81 µM.
The term half-life denotes the time needed for the level to fall by half in the phase considered. Broadly, the clearance is the rate of elimination divided by the concentration. Lower therefore signals a low capacity for elimination. `Cc1ccc(-c2ccc([C@H](CO)NC(=O)[C@H]3C[C@@H]3c3cccs3)cc2)cc1`: the figures for the EC50 in [1] and in data set [5] were 0.093 µM and 0.24 µM, respectively. The %max in data set [1] (HEK293) and in [5] (HEK293) was 90% each time. In addition, the half-life in data set [2] is 36 min. Besides, the Kp at 0.5 h in data set [3] was 2. Also, the fraction unbound in data set [4] is 0.025; in data set [9] it was 0.036. Further, the results for the concentration at 0.5 h in [6] and in data set [10] were 0.695 µM and 0.29 µM, respectively. For the same molecule, the clearance in [7] is 2.82 L/h/kg. Also, the Vd in data set [8] was determined as 2.17 L/kg.
Consider `CC[C@H](C)COc1ccc([C@H](CO)NC(=O)[C@@H](C)c2ccccc2)c(C)c1`, for which the EC50 in data set [1] worked out at 0.16 µM.
On the same count and under the same terms, to `CCCC(C)COc1ccc([C@H](CO)NC(=O)[C@@H](NC)c2ccccc2)cc1` (mixture of isomers) belongs 0.86 µM.
Turning to `CC[C@H](C)COc1ccc([C@H](CO)NC(=O)[C@@H](C)c2ccccc2)cc1`, the 50% effective concentration (EC50) in [1] worked out at 0.19 µM.
On the same count and under the same terms, to `CCCC(C)COc1ccc([C@H](CN2CCCC2)NC(=O)[C@@H](C)c2ccccc2)cc1` (mixture of isomers) belongs 0.57 µM.
In the case of `COCC(C)Oc1ccc([C@H](CO)NC(=O)[C@@H](C)c2ccccc2)cc1` (stereo partly drawn), in data set [1], the concentration giving a half-maximal response (EC50) is greater than 10 µM.
Still for that read-out and setting: to `CC[C@H](C)COc1cc(C)c([C@H](CO)NC(=O)[C@@H](C)c2ccccc2)c(C)c1` belongs 0.17 µM; to `CCCC(C)COc1ccc([C@H](CN2CCN(C)CC2)NC(=O)[C@@H](C)c2ccccc2)cc1` (mixture of isomers), 0.09 µM.
For the molecule `COc1ccc([C@H](CO)NC(=O)[C@@H](C)c2ccccc2)cc1`, the half-maximal effective concentration (EC50) in data set [1] is 0.41 µM. In addition, the concentration at 0.5 h in [11] is 1.24 µM; in data set [12] it was 0.97 µM; in [13] it was 0.45 µM; in [15], 0.335 µM. In addition, the fraction unbound in data set [14] is 0.23.
As for `CC[C@H](C)COc1ccc([C@H](CO)NC(=O)[C@@H](C)c2ccccc2)c(OC)c1`, the concentration for a half-maximal effect (EC50) in data set [1] is 0.19 µM.
For `CCCC(C)COc1ccc([C@H](CO)NC(=O)c2ccccc2)cc1` (mixture of isomers), the half-maximal effective concentration (EC50) in data set [1] was determined as 0.17 µM.
One may read the CL/F as the apparent clearance, not corrected for the fraction that reaches the circulation. On to `CC[C@H](C)COc1ccc([C@H](CO)NC(=O)[C@H]2C[C@@H]2c2cccs2)cc1`, for which the EC50 in data set [1] was greater than 10 µM. The concentration at 0.5 h worked out at 2.21 µM in data set [11]; 0.0057 µM in data set [16]; 11.5 µM in data set [17]; 5.27 µM in [18]; 2.51 µM in data set [13]; 0.0056 µM in data set [15]. For the same molecule, in data set [20], the concentration at 0.5 h was determined as 5.54 µM. The molecule further gave an apparent clearance (CL/F) in data set [19] of 8.64 L/h/kg. Besides, the fraction unbound in data set [14] is 0.06.
As for `O=C(N[C@@H](CO)c1ccc2ccccc2c1)[C@H]1C[C@H]1c1ccccc1`, the concentration for a half-maximal effect (EC50) in data set [1] was greater than 110 µM.
Take `CC[C@H](C)COc1ccc([C@H](CN)NC(=O)[C@@H](C)c2ccccc2)cc1`: the EC50 in data set [1] is greater than 10 µM. For the same molecule, the concentration at 0.5 h in data set [11] was determined as 0.86 µM; in [12], 59.5 µM; in data set [13] it was 0.34 µM; in data set [15], 0.0011 µM. Also, the CL/F in data set [19] is 3.96 L/h/kg. In data set [14], the fraction unbound is 0.09.
`O=C(NC(CO)c1ccc2ccccc2c1)[C@@H]1C[C@H]1c1ccccc1` (mixture of isomers): in data set [1], the concentration for a half-maximal effect (EC50) came to 6 µM.
For `CCCC(C)COc1ccc([C@H](CO)NC(=O)[C@H]2C[C@@H]2c2ccccc2)cc1` (mixture of isomers), the EC50 in data set [1] worked out at 0.73 µM.
On to `CC(C)COc1ccc([C@H](CO)NC(=O)[C@@H](C)c2ccccc2)cc1`, for which, in data set [1], the EC50 stood at 0.5 µM.
The same measure, in the same setting: the figure for `O=C(N[C@@H](CO)c1ccc2ccccc2c1)[C@@H]1C[C@H]1c1ccccc1` is greater than 270 µM.
As for `CC(C)COc1ccc([C@H](CO)NC(=O)[C@H]2C[C@@H]2c2cccs2)cc1`, the EC50 in data set [1] is 0.69 µM. Also, the concentration at 0.5 h in data set [11] was found to be 3.24 µM; in [12] it was 10.5 µM; in [13], 6.85 µM; in data set [15], 0.024 µM. The molecule further returned an apparent clearance CL/F in data set [19] of 10.6 L/h/kg. The fraction unbound in data set [14] was 0.05.
On to `CC[C@H](C)COc1ccc([C@H](CO)NC(=O)[C@@H](C)c2ccccc2)c(C)n1`, for which the EC50 in data set [1] turned out to be 0.26 µM.
With `C[C@H](C(=O)N[C@@H](CO)c1ccc(OCC2CCO2)cc1)c1ccccc1` (stereo partly drawn), the half-maximal effective concentration (EC50) in [1] is greater than 10 µM.
For `CCCC(C)COc1ccc([C@H](CO)NC(=O)N(CC)Cc2ccccc2)cc1` (mixture of isomers), the EC50 in data set [1] was found to be 1.5 µM.
